Where “and” joins values, the source holds several entries; their conditions need not be identical. Identical values can stand only once. Inconclusive results and toxic doses are left out. How the source made its calls: active means survival T/C of 150% or more; inactive means T/C below 125% in these data.
Test system: P388 leukemia ip, CD2F1 mice, survival T/C
Assay: NCI In Vivo Anticancer Drug Screen. Data for tumor model P388 Leukemia (intraperitoneal) in CD2F1 (CDF1) mice
Details: endpoint: median survival time, higher = longer survival
Method in brief: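 Mice carrying the transplanted tumor received test compound or vehicle. Survival was recorded in each group, and the value is the treated-group measurement divided by that of the vehicle-treated control group.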

[1] = dose: 25.0 mg/kg/injection, schedule: Q01DX009 (ip), vehicle: saline
[2] = dose: 50.0 mg/kg/injection, schedule: Q01DX005 (ip), vehicle: saline with Tween-80
[3] = dose: 100.0 mg/kg/injection, schedule: Q01DX005 (ip), vehicle: saline with Tween-80
[4] = dose: 60.0 mg/kg/injection, schedule: Q01DX005 (ip), vehicle: saline with Tween-80
[5] = dose: 120.0 mg/kg/injection, schedule: Q01DX005 (ip), vehicle: saline with Tween-80
[6] = dose: 240.0 mg/kg/injection, schedule: Q01DX005 (ip), vehicle: saline with Tween-80
[7] = dose: 50.0 mg/kg/injection, schedule: Q01DX005 (ip), vehicle: Klucel (hydroxypropylcellulose) (HPC)
[8] = dose: 100.0 mg/kg/injection, schedule: Q01DX005 (ip), vehicle: Klucel (hydroxypropylcellulose) (HPC)
[9] = dose: 200.0 mg/kg/injection, schedule: Q01DX005 (ip), vehicle: Klucel (hydroxypropylcellulose) (HPC)
[10] = dose: 6.25 mg/kg/injection, schedule: Q01DX009 (ip), vehicle: saline with Tween-80
[11] = dose: 12.5 mg/kg/injection, schedule: Q01DX009 (ip), vehicle: saline with Tween-80
[12] = dose: 25.0 mg/kg/injection, schedule: Q01DX009 (ip), vehicle: saline with Tween-80
[13] = dose: 50.0 mg/kg/injection, schedule: Q01DX009 (ip), vehicle: saline with Tween-80
[14] = dose: 200.0 mg/kg/injection, schedule: Q01DX005 (ip), vehicle: saline with Tween-80
[15] = dose: 100.0 mg/kg/injection, schedule: Q01DX009 (ip), vehicle: saline with Tween-80
[16] = dose: 60.0 mg/kg/injection, schedule: Q01DX005 (ip), vehicle: Klucel (hydroxypropylcellulose) (HPC)
[17] = dose: 120.0 mg/kg/injection, schedule: Q01DX005 (ip), vehicle: Klucel (hydroxypropylcellulose) (HPC)
[18] = dose: 240.0 mg/kg/injection, schedule: Q01DX005 (ip), vehicle: Klucel (hydroxypropylcellulose) (HPC)
[19] = dose: 50.0 mg/kg/injection, schedule: Q01DX009 (ip), vehicle: suspension in saline
[20] = dose: 100.0 mg/kg/injection, schedule: Q01DX009 (ip), vehicle: suspension in saline
[21] = dose: 25.0 mg/kg/injection, schedule: Q01DX009 (ip), vehicle: Klucel (hydroxypropylcellulose) (HPC)
[22] = dose: 50.0 mg/kg/injection, schedule: Q01DX009 (ip), vehicle: Klucel (hydroxypropylcellulose) (HPC)
[23] = dose: 100.0 mg/kg/injection, schedule: Q01DX009 (ip), vehicle: Klucel (hydroxypropylcellulose) (HPC)
[24] = dose: 200.0 mg/kg/injection, schedule: Q01DX009 (ip), vehicle: Klucel (hydroxypropylcellulose) (HPC)

Measured: T/C

C#CC[N+]1(C)CCC=C(C(=O)OC)C1 (centres undefined)
inactive: [1] 97 % of control

CC1CCC(=O)CN1Cc1ccccc1 (centres undefined)
inactive: [2] 109 % of control | [3] 101 % of control

Nc1nnc2nc(C(C(=O)c3ccc(O)cc3O)c3nc4nnc(N)n4[nH]c3=O)c(=O)[nH]n12
inactive: [4] 102 % of control | [5] 98 % of control | [6] 104 % of control

COc1cc(C[C@H]2c3cc(OC)c(OC)c(O)c3CCN2C)c(Oc2cc3c(cc2OC)-c2c(OC)c(OC)c(OC)c4c2C(C3)N(C)CC4)cc1OC (some centres undefined) (tested in a mixture with another compound)
inactive: dose: 8.75 mg/kg/injection, schedule: Q01DX005 (ip), vehicle: Klucel (hydroxypropylcellulose) (HPC) 103 % of control | dose: 17.5 mg/kg/injection, schedule: Q01DX005 (ip), vehicle: Klucel (hydroxypropylcellulose) (HPC) 99 % of control | dose: 35.0 mg/kg/injection, schedule: Q01DX005 (ip), vehicle: Klucel (hydroxypropylcellulose) (HPC) 96 % of control | dose: 70.0 mg/kg/injection, schedule: Q01DX005 (ip), vehicle: Klucel (hydroxypropylcellulose) (HPC) 94 % of control

COc1ccc2nc3c(=O)[nH]c(=O)nc-3n(CC(O)C(O)C(O)CO)c2c1 (centres undefined)
inactive: dose: 25.0 mg/kg/injection, schedule: Q01DX001 (ip), vehicle: saline 104 % of control | dose: 50.0 mg/kg/injection, schedule: Q01DX001 (ip), vehicle: saline 104 % of control | dose: 100.0 mg/kg/injection, schedule: Q01DX001 (ip), vehicle: saline 107 % of control | dose: 100.0 mg/kg/injection, schedule: Q04DX002 (ip), vehicle: saline 109 % of control

Nc1ccnc(Sc2ncccc2[N+](=O)[O-])n1
inactive: [7] 100 % of control | [8] 100 % of control | [9] 93 % of control

CC1(C)COCN1COC1CCCCC1
inactive: [1] 120 % of control

NC(=O)C1=Cc2cc(Cl)ccc2OC1
inactive: [10] 97 % of control | [11] 102 % of control | [12] 92 % of control | [13] 106 % of control

Nc1nnn(/N=C\c2ccccc2)n1
inactive: [7] 92 % of control | [8] 92 % of control

Clc1ccccc1C=Nc1ccc(N=Cc2ccccc2Cl)cc1
inactive: dose: 100.0 mg/kg/injection, schedule: Q04DX002 (ip), vehicle: saline with Tween-80 97 % of control | dose: 200.0 mg/kg/injection, schedule: Q04DX002 (ip), vehicle: saline with Tween-80 91 % of control | dose: 400.0 mg/kg/injection, schedule: Q04DX002 (ip), vehicle: saline with Tween-80 92 % of control

O=c1c2cc(Cl)ccc2on1CN1CCOCC1
inactive: [2] 111 % of control | [3] 118 % of control | [14] 111 % of control

CSc1nnc(CCC(=O)Nc2ccc(Cl)cc2Cl)o1
inactive: [4] 106 % of control | [5] 108 % of control

Cc1ccc(/C=N/NC(N)=S)s1
inactive: [11] 100 % of control | [12] 108 % of control | [13] 107 % of control | [15] 106 % of control

CC(C)COC(=O)NC1c2ccccc2Oc2ccccc21
inactive: [2] 95 % of control | [3] 93 % of control | [14] 89 % of control

O=C(Nc1c(Cl)cccc1Cl)OCc1ccco1
inactive: [16] 105 % of control | [17] 102 % of control | [18] 100 % of control

CSc1ccc(N2C(=O)CSC2=S)cc1Cl
inactive: [19] 101 % of control | [20] 99 % of control | dose: 200.0 mg/kg/injection, schedule: Q01DX009 (ip), vehicle: suspension in saline 104 % of control

O=C(O)CCc1c(-c2ccccc2)c(-c2ccccc2)c2n1CCC2
inactive: dose: 100.0 mg/kg/injection, schedule: Q01DX001 (ip), vehicle: saline with Tween-80 98 % of control | dose: 200.0 mg/kg/injection, schedule: Q01DX001 (ip), vehicle: saline with Tween-80 100 % of control | dose: 400.0 mg/kg/injection, schedule: Q01DX001 (ip), vehicle: saline with Tween-80 97 % of control

COc1cc2c(cc1OC)C1Cc3ccc(OC)c(OC)c3CN1CC2 (centres undefined)
inactive: dose: 50.0 mg/kg/injection, schedule: Q01DX009 (ip), vehicle: saline 104 % of control | [16] 100 % of control | dose: 100.0 mg/kg/injection, schedule: Q01DX009 (ip), vehicle: saline 101 % of control | [17] 109 % of control | dose: 200.0 mg/kg/injection, schedule: Q01DX009 (ip), vehicle: saline 99 % of control | [18] 108 % of control

[Cu+2].[NH-]CC1CCCC[N-]1.[NH-]CC1CCCC[N-]1.[O-][Cl+3]([O-])([O-])O (centres undefined)
inactive: [10] 103 % of control | [11] 100 % of control and 96 % of control | [12] 107 % of control

Cc1ccc(C23c4ccccc4CCN2C(=O)C3N)cc1 (centres undefined)
inactive: [7] 99 % of control | [8] 106 % of control | [9] 93 % of control

CC(C)(C)c1ccc(OCCSCCOc2ccc(C(C)(C)C)cc2)cc1
inactive: [13] 90 % of control | [15] 90 % of control | dose: 200.0 mg/kg/injection, schedule: Q01DX009 (ip), vehicle: saline with Tween-80 90 % of control

COC(=O)c1ccc(-c2ccccc2)cc1
inactive: [21] 89 % of control | [22] 89 % of control | [23] 90 % of control | [24] 86 % of control

c1ccc2c(SCCCCCCSc3c4ccccc4nc4ccccc34)c3ccccc3nc2c1
inactive: [16] 90 % of control | [17] 86 % of control

CC(=O)N1CCC(/C(C)=N/O)CC1
inactive: dose: 50.0 mg/kg/injection, schedule: Q01DX005 (ip), vehicle: saline 107 % of control | dose: 100.0 mg/kg/injection, schedule: Q01DX005 (ip), vehicle: saline 101 % of control | dose: 200.0 mg/kg/injection, schedule: Q01DX005 (ip), vehicle: saline 106 % of control

CC(C)C(C/C(=N\Nc1ccc([N+](=O)[O-])cc1[N+](=O)[O-])C1CC1)C(=O)O (centres undefined)
inactive: dose: 25.0 mg/kg/injection, schedule: Q01DX005 (ip), vehicle: saline with Tween-80 105 % of control | [2] 96 % of control | [3] 89 % of control

CC1OC(c2ccc3c(c2O)C(=O)C2=C(C3=O)[C@H]3OC(=O)C[C@H]3O[C@@H]2C)CC(N(C)C)C1O (some centres undefined)
inactive: dose: 1.5 mg/kg/injection, schedule: Q01DX005 (ip), vehicle: other 91 % of control | dose: 750.0 micrograms/kg/injection, schedule: Q01DX005 (ip), vehicle: other 86 % of control | dose: 1500.0 micrograms/kg/injection, schedule: Q01DX005 (ip), vehicle: other 90 % of control | dose: 3000.0 micrograms/kg/injection, schedule: Q01DX005 (ip), vehicle: other 88 % of control

CCCCN(CCCC)Cc1c(C)[nH]c2ccc(N(C)C)cc2c1=O
inactive: [19] 108 % of control | [20] 103 % of control

CCOc1ccccc1NC(=O)NCC(=O)NNC(=O)Nc1ccc(Cl)c([N+](=O)[O-])c1
inactive: [4] 93 % of control | [5] 98 % of control | [6] 92 % of control

Cc1ccc2c(=O)[nH]cnc2c1
inactive: dose: 12.5 mg/kg/injection, schedule: Q01DX009 (ip), vehicle: Klucel (hydroxypropylcellulose) (HPC) 100 % of control | [21] 98 % of control and 100 % of control | [22] 99 % of control and 103 % of control | [23] 101 % of control and 110 % of control and 97 % of control | [24] 113 % of control
